Counter-ions that a name gives are not always drawn. ± gives the standard deviation of the averaged measurements.
Test system: HepaRG
Test: LDH release cytotoxicity, % of total lysis control; higher = more cytotoxic
Settings: 48 h
Method in brief: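 HepaRG cells from a single lot were plated on collagen I-coated 96-well plates and treated in duplicate for 48 h with eight-point half-log series of test chemicals, starting at 100 µM, in serum-free induction medium containing 0.5% DMSO. Total lysis wells were given 0.1% Triton X. LDH released into 50 µL of spent medium was measured as resorufin fluorescence with CytoTox-ONE on a Tecan Safire. Percent cytotoxicity was normalized to on-plate vehicle and total lysis controls and then averaged across duplicates.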

| SMILES | LDH release cytotoxicity (0.031623 µM) [%] | LDH release cytotoxicity (0.1 µM) [%] | LDH release cytotoxicity (0.316228 µM) [%] | LDH release cytotoxicity (1 µM) [%] | LDH release cytotoxicity (3.16228 µM) [%] | LDH release cytotoxicity (10 µM) [%] | LDH release cytotoxicity (31.6228 µM) [%] | LDH release cytotoxicity (100 µM) [%] | LDH release cytotoxicity (0.03162 µM) [%] | LDH release cytotoxicity (0.3162278 µM) [%] |
| --- | --- | --- | --- | --- | --- | --- | --- | --- | --- | --- |
| OCCNCCO [Diethanolamine] | -1.15 ± 0.87 | -1.45 ± 1.3 | -1.83 ± 0.56 | -2.4 ± 0.18 | -2.41 ± 0.4 | -1.71 ± 0.48 | -0.726 ± 0.53 | 0.309 ± 0.55 | – | – |
| CCOC(=O)CCC(=O)OCC [Diethyl butanedioate] | – | -1.75 ± 0.66 | – | -1.99 ± 0.076 | -0.438 ± 0.84 | -0.384 ± 0.28 | 16 ± 3.3 | 83.2 ± 4.8 | -2.6 ± 0.22 | -2.02 ± 0.1 |
| CCOC(=O)c1ccccc1C(=O)OCC [Diethyl phthalate] | – | -0.436 ± 0.76 | – | -1.12 ± 0.43 | -0.475 ± 0.13 | -1.03 ± 0.2 | -0.196 ± 0.45 | 5.77 ± 0.6 | -0.196 ± 0.57 | -0.318 ± 0.092 |
| CCOS(=O)(=O)OCC [Diethyl sulfate] | – | -1.47 ± 0.76 | – | -2.05 ± 0.13 | -1.61 ± 0.19 | -1.77 ± 0.24 | -1.5 ± 0.21 | 0.71 ± 0.71 | -1.93 ± 0.2 | -1.68 ± 0.27 |
| O=C(OCCOCCOC(=O)c1ccccc1)c1ccccc1 [Diethylene glycol dibenzoate] | – | -1.337 ± 0.0031 | – | -1.03 ± 1.1 | -1.1 ± 0.042 | -0.826 ± 0.27 | -1.09 ± 0.2 | 0.38 ± 0.34 | -0.909 ± 1 | -0.774 ± 0.13 |
| COCCOCCOC [Diethylene glycol dimethyl ether] | – | -2.67 ± 0.22 | – | -2.68 ± 1.4 | -1.55 ± 0.41 | -0.488 ± 0.045 | -0.826 ± 0.12 | 0.75 ± 0.028 | -0.901 ± 0.75 | -2.41 ± 0.75 |
| COCCOCCO [Diethylene glycol monomethyl ether] | – | -2.12 ± 0.55 | – | -1.35 ± 0.45 | -0.999 ± 0.47 | -1.13 ± 0.19 | 0.0217 ± 1 | 1.02 ± 0.39 | -0.428 ± 1.3 | -0.798 ± 0.33 |
| OCCOCCO [Diethylene glycol] | – | -1.02 ± 0.94 | – | -0.601 ± 0.41 | -1.16 ± 0.75 | -0.563 ± 0.71 | -0.731 ± 0.0084 | 0.422 ± 0.8 | -0.757 ± 0.022 | -1.03 ± 0.3 |
| CCC(=C(CC)c1ccc(O)cc1)c1ccc(O)cc1 [Diethylstilbestrol] | -1.08 ± 0.25 | -0.295 ± 1.4 | -1.31 ± 0.079 | -2.18 ± 0.15 | -2.64 ± 1.2 | -2.24 ± 0.36 | -0.817 ± 0.032 | 0.74 ± 1.1 | – | – |
| CC1COC(Cn2cncn2)(c2ccc(Oc3ccc(Cl)cc3)cc2Cl)O1 (configuration not stated) [Difenoconazole] | – | -1.4 ± 0.88 | – | -1.47 ± 0.12 | -0.57 ± 1.1 | -0.701 ± 0.24 | -1.41 ± 0.25 | -0.14 ± 0.82 | -1.39 ± 1.3 | -1.37 ± 0.096 |
| Cn1c(-c2ccccc2)cc(-c2ccccc2)[n+]1C [Difenzoquat metilsulfate] | – | -4.55 ± 0.57 | – | -4.22 ± 0.43 | -3.44 ± 0.93 | -3.6 ± 0.33 | -2.99 ± 2 | -1.18 ± 0.17 | -4.98 ± 0.42 | -3.76 ± 0.46 |
| COc1ccc(-n2nc(C(F)F)cc2-c2ccc(S(C)=O)cc2)cc1 (configuration not stated) [Difpas-pyrazole] | – | -0.696 ± 1.1 | – | -0.962 ± 0.34 | 0.006 ± 0.28 | 0.216 ± 0.15 | 0.847 ± 0.57 | 78.66 ± 0.17 | -0.159 ± 0.56 | -0.216 ± 0.65 |
| CCCCCCOC(=O)c1ccccc1C(=O)OCCCCCC [Dihexyl phthalate] | – | -2.29 ± 0.55 | – | -1.78 ± 0.38 | -2.06 ± 0.53 | 4.57 ± 0.29 | 25.3 ± 3.5 | 81 ± 8.9 | -0.113 ± 0.13 | -1.07 ± 0.072 |
| CC(C)COC(=O)CCCCC(=O)OCC(C)C [Diisobutyl adipate] | – | -2.01 ± 0.88 | – | -2.26 ± 0.4 | -2.38 ± 0.66 | -0.129 ± 0.52 | 7.28 ± 1 | 46.4 ± 4.1 | -1.813 ± 0.015 | -0.902 ± 0.055 |
| CC(C)COC(=O)c1ccccc1C(=O)OCC(C)C [Diisobutyl phthalate] | – | -2.4 ± 0.15 | – | -2.06 ± 0.78 | -2.34 ± 1.2 | -1.43 ± 1.4 | -2.53 ± 0.83 | -1.03 ± 1.3 | -2.33 ± 0.23 | -2.25 ± 0.78 |
| CC(C)CCCCCCCOC(=O)CCCCC(=O)OCCCCCCCC(C)C [Diisodecyl hexanedioate] | – | -1.86 ± 0.81 | – | -1.58 ± 0.48 | -1.63 ± 0.72 | -1.13 ± 0.48 | -0.135 ± 0.66 | 0.966 ± 0.73 | -0.938 ± 0.57 | -1.91 ± 0.57 |
| CC(C)CCCCCCOC(=O)C1CCCCC1C(=O)OCCCCCCC(C)C (configuration not stated) [Diisononyl cyclohexane-1,2-dicarboxylate] | – | -0.599 ± 0.29 | – | -0.000557 ± 0.59 | -0.402 ± 0.22 | 0.246 ± 0.61 | -0.258 ± 0.077 | 1.07 ± 0.34 | -0.786 ± 0.8 | -1.09 ± 0.054 |
| COCC(C)N(C(=O)CCl)c1c(C)csc1C (configuration not stated) [Dimethenamid] | -1.73 ± 1.3 | -3.31 ± 1.4 | -2.49 ± 1.9 | -2.95 ± 1.9 | -2.64 ± 2.5 | -3.81 ± 0.44 | -2.28 ± 1 | 0.11 ± 0.34 | – | – |
| CC1=C(C)S(=O)(=O)CCS1(=O)=O [Dimethipin] | – | -2.52 ± 0.16 | – | -3.12 ± 0.25 | -2.6 ± 0.79 | -2.6 ± 0.88 | -2.51 ± 1.3 | -1.52 ± 0.84 | -2.35 ± 1 | -2.59 ± 0.038 |
